How the values were obtained:
Type in all cases: functional
[1] = Antioxidant activity assessed as AAPH radical scavenging activity at 12.5 uM ORAC assay
[2] = test system: PC-12; assay: Cytoprotective activity against H2O2-induced oxidative injury in rat PC-12 cells assessed as cell viability at 10 uM incubated for 24 hrs (reference value: 46.91 +/- 3.74%); conditions: for viability at 10 µM: read-out: Activity
[3] = Antioxidant activity assessed as DPPH radical scavenging activity incubated for 30 mins

Row | Compound | IC50 [3] | Activity (umolequiv/umol) [1] | viability at 10 µM [2] | Activity [2]
1 | VITAMIN E |  |  |  | 57.7%
2 | COC(=O)CSc1c(O)cc(OC)c(C(=O)c2c(O)cc(C)cc2OC)c1C(=O)OC | > 100 µM | 1.65 | 49.1% | 
3 | COC(=O)c1c2c(cc(OC)c1C(=O)c1c(O)cc(C)cc1OC)O[C@@H](OC)CS2 | > 100 µM | 0.08 |  | 
4 | COC(=O)c1c2c(cc(OC)c1C(=O)c1c(O)cc(C)cc1OC)OC(OC)CS2 (racemic) | > 100 µM | 0.03 | 63.2% | 
5 | COC(=O)c1c(C(=O)c2c(O)cc(C)cc2OC)c(OC)cc(O)c1[S@+](C)[O-] | > 100 µM | 1.59 |  | 
6 | COC(=O)c1cc(O)cc(OC)c1C(=O)c1c(O)cc(C)cc1OC | > 100 µM | 1.55 | 51.7% | 

Continued, in another order:

Row | IC50 [3] | Compound | Activity (umolequiv/umol) [1] | viability at 10 µM [2] | Activity [2]
7 | 17.3 µM | COC1=CC(=O)C(C)=C(O)C1=O | 0.67 | 50% | 
8 | > 100 µM | COC(=O)c1c(C(=O)c2c(O)cc(C)cc2OC)c(OC)cc(O)c1[S@@+](C)[O-] | 1.76 |  | 
9 | > 100 µM | COC(=O)c1c2c(cc(OC)c1C(=O)c1c(O)cc(C)cc1OC)O[C@H](OC)CS2 | 0.02 |  | 
10 | > 100 µM | COC(=O)c1c(C(=O)c2c(O)cc(C)cc2OC)c(OC)cc(O)c1[S+](C)[O-] (racemic) | 1.73 | 62.4% | 
11 | > 100 µM | COC(=O)c1c(SC[C@H]2NC(=O)CNC2=O)c(O)cc(OC)c1C(=O)c1c(O)cc(C)cc1OC | 0.78 | 54.2% | 
12 | 11.9 µM | O=C1O[C@H]([C@@H](O)CO)C(O)=C1O [ASCORBIC ACID] |  |  | 
13 | 23.7 µM | COc1c(O)c(O)c(C)c2sc(CO)nc12 | 0.66 | 43.2% | 
14 | 3.45 µM | COc1c(O)c(O)c(C)c2scnc12 | 0.73 | 47.9% | 
